Test results as given in ChEMBL document CHEMBL1154287, “Phenylaminopyrimidines as inhibitors of Janus kinases (JAKs)” (Bioorg Med Chem Lett, 2009).
pIC50: −log10 of the molar value.

What was measured:
[1] = target: T1, Tyrosine-protein kinase JAK3 (Homo sapiens, UniProt P52333)
T1 sequence (P52333 whole entry): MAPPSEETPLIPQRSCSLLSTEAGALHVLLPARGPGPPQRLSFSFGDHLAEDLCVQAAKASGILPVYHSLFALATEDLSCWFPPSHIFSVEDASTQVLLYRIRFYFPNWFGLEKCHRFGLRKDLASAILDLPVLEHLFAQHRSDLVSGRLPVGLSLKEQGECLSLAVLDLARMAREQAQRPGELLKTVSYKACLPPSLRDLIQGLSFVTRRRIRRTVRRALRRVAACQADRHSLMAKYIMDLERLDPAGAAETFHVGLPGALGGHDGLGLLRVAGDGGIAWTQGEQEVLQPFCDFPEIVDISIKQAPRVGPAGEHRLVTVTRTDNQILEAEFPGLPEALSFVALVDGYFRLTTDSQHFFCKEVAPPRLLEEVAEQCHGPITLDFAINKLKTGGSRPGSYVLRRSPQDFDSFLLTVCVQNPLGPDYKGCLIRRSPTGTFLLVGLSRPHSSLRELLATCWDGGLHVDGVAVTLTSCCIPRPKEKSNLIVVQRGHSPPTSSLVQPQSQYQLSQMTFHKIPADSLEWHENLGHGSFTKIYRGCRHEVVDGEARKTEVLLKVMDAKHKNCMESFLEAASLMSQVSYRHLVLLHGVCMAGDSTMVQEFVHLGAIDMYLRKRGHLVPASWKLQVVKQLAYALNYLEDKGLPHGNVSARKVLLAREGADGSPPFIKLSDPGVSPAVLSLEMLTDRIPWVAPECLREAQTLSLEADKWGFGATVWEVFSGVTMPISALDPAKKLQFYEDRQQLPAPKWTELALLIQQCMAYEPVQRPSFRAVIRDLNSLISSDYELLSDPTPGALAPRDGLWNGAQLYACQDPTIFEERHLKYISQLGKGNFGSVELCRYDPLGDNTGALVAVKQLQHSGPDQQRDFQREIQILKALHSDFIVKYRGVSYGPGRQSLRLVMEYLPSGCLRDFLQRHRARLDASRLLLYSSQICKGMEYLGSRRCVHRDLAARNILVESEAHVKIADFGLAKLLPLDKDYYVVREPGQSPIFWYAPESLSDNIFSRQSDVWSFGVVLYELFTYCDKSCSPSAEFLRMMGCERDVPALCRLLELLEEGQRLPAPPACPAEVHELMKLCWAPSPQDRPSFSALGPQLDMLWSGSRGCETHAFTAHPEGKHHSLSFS
Description: Inhibition of GST-tagged JAK3 kinase

BaF3 [2] = test: cells; conditions: Mus musculus, BaF3, 72 h
Description: Antiproliferative activity against mouse BAF3 cells expressing TEL-JAK3 kinase after 72 hrs by alamar blue assay

[3] = Oral bioavailability in Sprague-Dawley rat at 21 mg/kg; type: ADME, organism-based; conditions: in vivo
[4] = Apparent permeability from basolateral to apical side in human Caco-2 cells; type: ADME, cell-based
cells = conditions: Mus musculus, CTLL-2, 72 h
Description: Antiproliferative activity against IL-2-stimulated mouse CTLL-2 cells expressing JAK1/JAK3 after 72 hrs by alamar blue assay

in vitro [5] = conditions: human, Caco-2
Description: Ratio of permeability from apical to basolateral side over basolateral to apical side in human Caco-2 cells

in vitro [6] = conditions: human, Caco-2; remark: listed apart in the source
Description: Apparent permeability from apical to basolateral side in human Caco-2 cells

[7] = target: Tyrosine-protein kinase JAK2 (Homo sapiens, UniProt O60674)
Description: Inhibition of GST-tagged JAK2 kinase

[8] = Cmax in Sprague-Dawley rat at 21 mg/kg; type: ADME, organism-based; design: dose 21 mg/kg; conditions: in vivo
BaF3 [9] = test: cells; conditions: Mus musculus, BaF3, 72 h; remark: listed apart in the source
Description: Antiproliferative activity against mouse BAF3 cells expressing TEL-JAK2 kinase after 72 hrs by alamar blue assay

[10] = Blood clearance in Sprague-Dawley rat at 21 mg/kg, iv; type: ADME, organism-based; design: dose 21 mg/kg, route intravenous
[11] = Tmax in Sprague-Dawley rat at 18 mg/kg, po; type: ADME, organism-based; design: dose 18 mg/kg, route oral; conditions: in vivo
[12] = Antiproliferative activity against human SET2 cells expressing JAK2 V617F mutant kinase after 72 hrs by alamar blue assay; type: functional, cell-based; conditions: SET-2, 72 h
[13] = Blood clearance in Sprague-Dawley rat at 18 mg/kg, po; type: ADME, organism-based; design: dose 18 mg/kg, route oral
[14] = Apparent half life in Sprague-Dawley rat at 18 mg/kg, po; type: ADME, organism-based; design: dose 18 mg/kg, route oral; conditions: in vivo
K562 = test: cells; conditions: Homo sapiens, K562, 72 h
Description: Antiproliferative activity against human K562 cells after 72 hrs by alamar blue assay

BaF3 [15] = test: Antiproliferative activity against mouse BAF3 cells expressing wild type JAK2 kinase after 72 hrs by alamar blue assay in presence of IL-3; type: functional, cell-based; conditions: BaF3, 72 h
[16] = Cmax in Sprague-Dawley rat at 18 mg/kg, po; type: ADME, organism-based; design: dose 18 mg/kg, route oral; conditions: in vivo

Tyrosine-protein kinase JAK2, sequence (O60674 whole entry): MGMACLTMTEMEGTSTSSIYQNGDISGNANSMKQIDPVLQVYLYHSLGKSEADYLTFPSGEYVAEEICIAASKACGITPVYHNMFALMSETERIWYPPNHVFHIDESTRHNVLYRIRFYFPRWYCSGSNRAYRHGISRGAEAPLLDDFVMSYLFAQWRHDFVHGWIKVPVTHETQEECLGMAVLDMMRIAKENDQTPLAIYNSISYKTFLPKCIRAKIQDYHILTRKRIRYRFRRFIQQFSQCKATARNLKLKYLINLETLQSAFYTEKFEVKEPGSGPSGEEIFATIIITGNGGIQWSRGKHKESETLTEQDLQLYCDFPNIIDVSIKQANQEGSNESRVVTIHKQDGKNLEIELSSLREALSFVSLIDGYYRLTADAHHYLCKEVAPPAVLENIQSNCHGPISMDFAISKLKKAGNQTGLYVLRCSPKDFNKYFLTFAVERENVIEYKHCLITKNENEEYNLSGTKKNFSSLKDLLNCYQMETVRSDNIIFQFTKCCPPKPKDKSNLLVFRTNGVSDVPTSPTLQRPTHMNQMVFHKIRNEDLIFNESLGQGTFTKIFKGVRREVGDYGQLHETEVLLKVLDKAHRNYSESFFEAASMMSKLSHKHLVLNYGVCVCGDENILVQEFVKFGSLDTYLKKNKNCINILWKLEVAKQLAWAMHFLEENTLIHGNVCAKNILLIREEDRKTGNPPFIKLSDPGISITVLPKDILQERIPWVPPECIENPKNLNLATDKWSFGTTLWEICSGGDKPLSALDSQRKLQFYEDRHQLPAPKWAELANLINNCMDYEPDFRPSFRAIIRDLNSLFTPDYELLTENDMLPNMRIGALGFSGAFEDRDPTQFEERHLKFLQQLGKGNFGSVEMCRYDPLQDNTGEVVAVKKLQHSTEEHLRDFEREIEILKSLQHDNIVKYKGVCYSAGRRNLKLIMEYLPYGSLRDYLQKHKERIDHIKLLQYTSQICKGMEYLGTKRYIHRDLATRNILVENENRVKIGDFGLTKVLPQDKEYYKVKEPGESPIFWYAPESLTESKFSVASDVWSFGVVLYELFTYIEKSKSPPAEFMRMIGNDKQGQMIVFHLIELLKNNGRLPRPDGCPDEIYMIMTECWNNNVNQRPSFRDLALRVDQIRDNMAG

CS(=O)(=O)Nc1ccc(-c2ccnc(Nc3ccc(CN4CCS(=O)(=O)CC4)cc3)n2)cc1 gave a pIC50 [1] of 6.23, a pIC50 (BaF3 [2]) of 5.45 and a bioavailability [3] of 5.4%. For the same compound, the Papp B→A [4] was 56.4 ×10⁻⁶ cm/s, the pIC50 (cells) was 5.65 and the efflux ratio (in vitro [5]) was 12.3. It also gave a Papp A→B (in vitro [6]) of 4.6 ×10⁻⁶ cm/s, a pIC50 [7] of 8.70 and a Cmax [8] of 0.27 µM. It also gave a pIC50 (BaF3 [9]) of 6.10 and a clearance [10] of 36.6 mL/min/kg.
N#CCNC(=O)c1ccc(-c2ccnc(Nc3ccc(N4CCOCC4)cc3)n2)cc1 [MOMELOTINIB] showed a pIC50 (BaF3 [2]) of 5.62, a Tmax [11] of 4 h and a pIC50 [12] of 6.63. The Papp B→A [4] was 27.3 ×10⁻⁶ cm/s, the pIC50 (cells) was 5.90 and the CL/F [13] was 6.3 mL/min/kg. For the same compound, the Papp A→B (in vitro [6]) was 30.4 ×10⁻⁶ cm/s, the half-life [14] was 2.4 h and the pIC50 (K562) was less than 4.70. The pIC50 (BaF3 [9]) was 6.10, the pIC50 (BaF3 [15]) was 5.84 and the Cmax [16] was 40.4 µM.
